Measurements reported in paper PMC4045324 (Biochemistry, 2014).
Marks after values point to notes of the source that are not given here.

Key:
[1] = tested on: CC(=O)[C@@H](O)[C@H](O)COP(=O)(O)O; test: purified protein, by the assay type; conditions: pH 7.5; 25.0 °C
wild-type MtDXR [2] = conditions: ref Liu and Murkin 17; cited from earlier work
wild-type MtDXR [3] = biological target: wild-type MtDXR (Mycobacterium tuberculosis, UniProt P9WNS1); format: binding
P. falciparum = conditions: cited from earlier work
wild-type MtDXR [4] = conditions: pH 7.6; cited from earlier work
DXR = conditions: read-out: Ki values; cited from earlier work
M. tuberculosis = conditions: cited from earlier work

Chain of wild-type MtDXR (Mycobacterium tuberculosis, UniProt P9WNS1) (P9WNS1 1-389): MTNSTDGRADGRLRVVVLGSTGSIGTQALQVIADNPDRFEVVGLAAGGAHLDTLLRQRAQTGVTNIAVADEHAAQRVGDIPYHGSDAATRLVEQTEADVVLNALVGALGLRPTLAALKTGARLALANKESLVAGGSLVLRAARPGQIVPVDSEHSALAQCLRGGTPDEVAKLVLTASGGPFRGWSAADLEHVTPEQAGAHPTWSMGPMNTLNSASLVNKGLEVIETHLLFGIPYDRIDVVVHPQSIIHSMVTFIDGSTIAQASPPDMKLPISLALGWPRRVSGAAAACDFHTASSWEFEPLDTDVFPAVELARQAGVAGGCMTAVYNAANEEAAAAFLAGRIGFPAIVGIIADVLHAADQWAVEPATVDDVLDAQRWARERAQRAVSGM

For (Mycobacterium tuberculosis H37Rv), the Km [1] was 137 ± 12 µM, the kcat [1] was 4.2 ± 0.2 s⁻¹ and the kcat/Km [1] was 31000 ± 2000 M⁻¹ s⁻¹.
In the case of CC(=O)[C@@H](O)[C@H](O)COP(=O)(O)O [DXP, 1-deoxy-D-xylulose 5-phosphate], the Km (wild-type MtDXR [2]) is listed as 115 ± 7 µM.
For O=CN(O)CCCP(=O)(O)O [fosmidomycin], the “enthalpy share of total binding energy” value (wild-type MtDXR [3]) was 50%, the “ΔG°” value (wild-type MtDXR [3]; pH 7.5) was “–9.82 ± 0.08 kcal/mol” and the “ΔH°” value (wild-type MtDXR [3]; pH 7.5) was “–4.8 ± 0.7 kcal/mol”. The “–TΔS°” value (wild-type MtDXR [3]; pH 7.5) was “–5.0 ± 0.7 kcal/mol”, the “treatment of malaria caused by P. falciparum” value (P. falciparum) was “effective” and the Kd (wild-type MtDXR [4]) was 290 nM. The “ΔG°” value (wild-type MtDXR [4]) was “–8.34 ^e kcal/mol”, the “ΔH°” value (wild-type MtDXR [4]) was “–6.0 ^e kcal/mol” and the “–TΔS°” value (wild-type MtDXR [4]) was “–2.3 ^e kcal/mol”. For the same molecule, the Ki (DXR) was 10 to 100 nM and the “activity against M. tuberculosis” value (M. tuberculosis) was “poorly active”.
